The test concerns P388 leukemia ip, CD2F1 mice, survival T/C. Kind of test: NCI In Vivo Anticancer Drug Screen. Data for tumor model P388 Leukemia (intraperitoneal) in CD2F1 (CDF1) mice. As to conditions: endpoint: median survival time, higher = longer survival. In short, it runs like this: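 Mice carrying the transplanted tumor received test compound or vehicle. Survival was recorded in each group, and the value is the treated-group measurement divided by that of the vehicle-treated control group.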

Setting [1] is: dose: 50.0 mg/kg/injection, schedule: Q01DX009 (ip), vehicle: saline.
Setting [2] is: dose: 100.0 mg/kg/injection, schedule: Q01DX009 (ip), vehicle: saline.
Where [3] appears, read: dose: 200.0 mg/kg/injection, schedule: Q01DX009 (ip), vehicle: saline.
Where [4] appears, read: dose: 400.0 mg/kg/injection, schedule: Q01DX009 (ip), vehicle: saline.
[5] abbreviates: dose: 100.0 mg/kg/injection, schedule: Q01DX001 (ip), vehicle: saline with Tween-80.
[6] abbreviates: dose: 200.0 mg/kg/injection, schedule: Q01DX001 (ip), vehicle: saline with Tween-80.
The mark [7] stands for this setting: dose: 50.0 mg/kg/injection, schedule: Q01DX005 (ip), vehicle: saline with Tween-80.
Where [8] appears, read: dose: 100.0 mg/kg/injection, schedule: Q01DX005 (ip), vehicle: saline with Tween-80.
The mark [9] stands for this setting: dose: 200.0 mg/kg/injection, schedule: Q01DX005 (ip), vehicle: saline with Tween-80.
The mark [10] stands for this setting: dose: 50.0 mg/kg/injection, schedule: Q01DX009 (ip), vehicle: saline with Tween-80.
The mark [11] stands for this setting: dose: 100.0 mg/kg/injection, schedule: Q01DX009 (ip), vehicle: saline with Tween-80.
The mark [12] stands for this setting: dose: 3.12 mg/kg/injection, schedule: Q01DX005 (ip), vehicle: saline.
Where [13] appears, read: dose: 6.25 mg/kg/injection, schedule: Q01DX009 (ip), vehicle: water.
Where [14] appears, read: dose: 12.5 mg/kg/injection, schedule: Q01DX009 (ip), vehicle: water.
[15] abbreviates: dose: 25.0 mg/kg/injection, schedule: Q01DX009 (ip), vehicle: water.
The mark [16] stands for this setting: dose: 50.0 mg/kg/injection, schedule: Q01DX009 (ip), vehicle: water.

Values joined by “and” are separate entries in the source; they are usually repeats but may differ in a detail not shown here. Equal entries are not always repeated. Inconclusive results and toxic doses are left out.

In the case of `CCn1c2ccccc2c2cc(N=C3C(=O)N(C)c4ccccc43)ccc21`, the T/C was 90 % of control (dose: 60.0 mg/kg/injection, schedule: Q01DX005 (ip), vehicle: Klucel (hydroxypropylcellulose) (HPC)); 92 % of control (dose: 120.0 mg/kg/injection, schedule: Q01DX005 (ip), vehicle: Klucel (hydroxypropylcellulose) (HPC)); 90 % of control (dose: 240.0 mg/kg/injection, schedule: Q01DX005 (ip), vehicle: Klucel (hydroxypropylcellulose) (HPC)).

`O=C(CO)c1ccc([N+](=O)[O-])cc1`: the T/C is, setting by setting: (dose: 1.56 mg/kg/injection, schedule: Q01DX009 (ip), vehicle: saline with Tween-80) 99 % of control; (dose: 3.13 mg/kg/injection, schedule: Q01DX009 (ip), vehicle: saline with Tween-80) 101 % of control; (dose: 6.25 mg/kg/injection, schedule: Q01DX009 (ip), vehicle: saline with Tween-80) 106 % of control; (dose: 12.5 mg/kg/injection, schedule: Q01DX009 (ip), vehicle: saline with Tween-80) 116 % of control.

`NC(=O)c1ncn(C2OC(CO)C(O)C2O)c1N` (configuration not stated): the T/C under setting [1] was 106 % of control and 109 % of control; the T/C under setting [2] was 98 % of control and 95 % of control; the T/C under setting [3] was 103 % of control and 108 % of control; the T/C under setting [4] was 107 % of control and 87 % of control.

`COc1ccc2c(c1)[C@]13CCN(C)[C@H](C2)[C@@H]1CCC1(C3)OCCO1`: the T/C is, setting by setting: under setting [5], 104 % of control; under setting [6], 106 % of control.

Turning to `CCC(C)C(NC=O)C(=O)O` (configuration not stated), the T/C runs as follows: under setting [7], 93 % of control; under setting [8], 100 % of control; under setting [9], 100 % of control.

On to `c1ncc2n[pH]nc2n1` (configuration not stated), for which the T/C (dose: 60.0 mg/kg/injection, schedule: Q01DX005 (ip), vehicle: saline) was 95 % of control; the T/C (dose: 120.0 mg/kg/injection, schedule: Q01DX005 (ip), vehicle: saline) was 101 % of control; the T/C (dose: 240.0 mg/kg/injection, schedule: Q01DX005 (ip), vehicle: saline) was 96 % of control.

Take `CC1CCC(C)N(C)C1` (configuration not stated): the T/C is, setting by setting: (dose: 25.0 mg/kg/injection, schedule: Q01DX005 (ip), vehicle: saline with Tween-80) 98 % of control; under setting [7], 102 % of control.

Take `N#CCCN(N)S(=O)(=O)c1ccc(Cl)cc1`: the T/C runs as follows: (dose: 50.0 mg/kg/injection, schedule: Q01DX005 (ip), vehicle: Klucel (hydroxypropylcellulose) (HPC)) 97 % of control; (dose: 100.0 mg/kg/injection, schedule: Q01DX005 (ip), vehicle: Klucel (hydroxypropylcellulose) (HPC)) 99 % of control; (dose: 200.0 mg/kg/injection, schedule: Q01DX005 (ip), vehicle: Klucel (hydroxypropylcellulose) (HPC)) 96 % of control.

Regarding `CCC(c1ccc(OC)cc1)C(NCC(=O)N/N=C1\C[C@@H]2[C@H](CC[C@]3(C)[C@@H](O)CC[C@@H]23)c2c(C)cc(O)cc21)c1ccc(OC)cc1` (some centres not stated), the T/C is, setting by setting: under setting [5], 106 % of control; under setting [6], 107 % of control; (dose: 400.0 mg/kg/injection, schedule: Q01DX001 (ip), vehicle: saline with Tween-80) 101 % of control.

With `NC(CC(=O)NO)C(=O)O` (configuration not stated), the T/C runs as follows: under setting [3], 110 % of control; under setting [4], 120 % of control.

As for `O=C1OC(=O)C23Cc4ccccc4CC12CC1Cc2ccccc2CC1C3` (configuration not stated), the T/C was 100 % of control (dose: 50.0 mg/kg/injection, schedule: Q01DX009 (ip), vehicle: Klucel (hydroxypropylcellulose) (HPC)); 88 % of control (dose: 100.0 mg/kg/injection, schedule: Q01DX009 (ip), vehicle: Klucel (hydroxypropylcellulose) (HPC)); 94 % of control (dose: 200.0 mg/kg/injection, schedule: Q01DX009 (ip), vehicle: Klucel (hydroxypropylcellulose) (HPC)).

For the molecule `CC(C)(C)N=C(CCC(C#N)(C#N)CCC(=NC(C)(C)C)Nc1ccc([N+](=O)[O-])cc1)Nc1ccc([N+](=O)[O-])cc1`, the T/C is 98 % of control under setting [10]; 95 % of control under setting [11]; 88 % of control (dose: 200.0 mg/kg/injection, schedule: Q01DX009 (ip), vehicle: saline with Tween-80).

For `CCCCN(CCCC)C(=N)c1c(OC)cccc1OC`, the T/C (dose: 0.78 mg/kg/injection, schedule: Q01DX005 (ip), vehicle: saline) is 104 % of control; the T/C (dose: 1.56 mg/kg/injection, schedule: Q01DX005 (ip), vehicle: saline) is 99 % of control; the T/C under setting [12] is 96 % of control.

With `Nc1nnc2nc(C(C(=O)c3ccc(F)cc3)c3nc4nnc(N)n4[nH]c3=O)c(=O)[nH]n12`, the T/C runs as follows: under setting [7], 98 % of control; under setting [8], 92 % of control; under setting [9], 91 % of control.

Regarding `CC(C)(C)N(OC(=O)c1ccc([N+](=O)[O-])cc1)c1ccccc1`, the T/C by setting is: (dose: 25.0 mg/kg/injection, schedule: Q01DX009 (ip), vehicle: saline with Tween-80) 98 % of control; under setting [10], 97 % of control; under setting [11], 95 % of control.

`C1=C[N-]c2c3c(ccc2=C1)=CC=C[N-]3.C1=C[N-]c2c3c(ccc2=C1)=CC=C[N-]3.C1C[N-]C2C(C1)CCC1CC[N-]CC12.[Ni]`: the T/C under setting [12] was 97 % of control and the T/C (dose: 6.25 mg/kg/injection, schedule: Q01DX005 (ip), vehicle: saline) is 96 % of control.

As to `Cc1cc(NCCCCCCNc2cc(C)nc3cc(N(C)C)ccc23)c2ccc(N(C)C)cc2n1`, the T/C (dose: 1.56 mg/kg/injection, schedule: Q01DX009 (ip), vehicle: distilled water + Tween-80 + alcohol) is 110 % of control; the T/C (dose: 6.25 mg/kg/injection, schedule: Q01DX009 (ip), vehicle: distilled water + Tween-80 + alcohol) was 151 % of control; the T/C (dose: 12.5 mg/kg/injection, schedule: Q01DX009 (ip), vehicle: distilled water + Tween-80 + alcohol) is 154 % of control and 158 % of control; the T/C (dose: 25.0 mg/kg/injection, schedule: Q01DX009 (ip), vehicle: distilled water + Tween-80 + alcohol) is 178 % of control and 181 % of control.

Take `Cc1nnc(NN=O)nc1C`: the T/C was 96 % of control (dose: 3.12 mg/kg/injection, schedule: Q01DX009 (ip), vehicle: water); 100 % of control under setting [13]; 105 % of control and 98 % of control under setting [14]; 104 % of control and 106 % of control under setting [15]; 99 % of control and 101 % of control and 105 % of control under setting [16]; 96 % of control (dose: 100.0 mg/kg/injection, schedule: Q01DX009 (ip), vehicle: water).

Turning to `O=c1cc[nH]c(=O)o1`, the T/C runs as follows: under setting [13], 108 % of control; under setting [14], 119 % of control; under setting [15], 124 % of control; under setting [16], 121 % of control.

As to `CCOC(=O)CCC#N`, the T/C runs as follows: under setting [1], 99 % of control and 105 % of control; under setting [2], 107 % of control and 108 % of control; under setting [3], 105 % of control and 106 % of control; under setting [4], 100 % of control.

In the case of `O=C(O)c1c[nH]c2ccc([N+](=O)[O-])cc2c1=O`, the T/C is 110 % of control (dose: 0.63 mg/kg/injection, schedule: Q01DX009 (ip), vehicle: Klucel (hydroxypropylcellulose) (HPC)); 94 % of control (dose: 1.25 mg/kg/injection, schedule: Q01DX009 (ip), vehicle: Klucel (hydroxypropylcellulose) (HPC)); 101 % of control (dose: 2.5 mg/kg/injection, schedule: Q01DX009 (ip), vehicle: Klucel (hydroxypropylcellulose) (HPC)); 104 % of control (dose: 5.0 mg/kg/injection, schedule: Q01DX009 (ip), vehicle: Klucel (hydroxypropylcellulose) (HPC)); 100 % of control (dose: 10.0 mg/kg/injection, schedule: Q01DX009 (ip), vehicle: Klucel (hydroxypropylcellulose) (HPC)); 86 % of control (dose: 90.0 mg/kg/injection, schedule: Q01DX009 (ip), vehicle: Klucel (hydroxypropylcellulose) (HPC)).

Regarding `CN(C)c1ncnc2c1cnn2C`, the T/C under setting [10] was 109 % of control; the T/C (dose: 50.0 mg/kg/injection, schedule: Q04DX003 (ip), vehicle: saline sonified) was 100 % of control; the T/C (dose: 100.0 mg/kg/injection, schedule: Q04DX003 (ip), vehicle: saline sonified) was 100 % of control; the T/C (dose: 200.0 mg/kg/injection, schedule: Q04DX003 (ip), vehicle: saline sonified) is 109 % of control.

Regarding `Cc1cc2c(cc1C)C(O)CCC(=O)N2` (configuration not stated), the T/C runs as follows: (dose: 60.0 mg/kg/injection, schedule: Q01DX005 (ip), vehicle: saline with Tween-80) 95 % of control; (dose: 120.0 mg/kg/injection, schedule: Q01DX005 (ip), vehicle: saline with Tween-80) 91 % of control; (dose: 240.0 mg/kg/injection, schedule: Q01DX005 (ip), vehicle: saline with Tween-80) 87 % of control.
